Data taken from ChEMBL document CHEMBL2385060, “A dihydrochalcone and several homoisoflavonoids from Polygonatum odoratum are activators of adenosine monophosphate-activated protein kinase” (Bioorg Med Chem Lett, 2013).
Activity calls are given as the source filed them. The calls are words filed in the database; no cut-off is given here.

What was measured:
Assay type in all cases: cell-based
[1] = target: 5'-AMP-activated protein kinase catalytic subunit alpha-2 (Rattus norvegicus) (UniProt Q09137); assay: Activation of AMPK in rat IAR-20 cells assessed as phosphorylated acetyl CoA carboxylase level at 10 uM after 30 mins by Western blot analysis
Chain of 5'-AMP-activated protein kinase catalytic subunit alpha-2 (Rattus norvegicus) (Q09137 whole entry): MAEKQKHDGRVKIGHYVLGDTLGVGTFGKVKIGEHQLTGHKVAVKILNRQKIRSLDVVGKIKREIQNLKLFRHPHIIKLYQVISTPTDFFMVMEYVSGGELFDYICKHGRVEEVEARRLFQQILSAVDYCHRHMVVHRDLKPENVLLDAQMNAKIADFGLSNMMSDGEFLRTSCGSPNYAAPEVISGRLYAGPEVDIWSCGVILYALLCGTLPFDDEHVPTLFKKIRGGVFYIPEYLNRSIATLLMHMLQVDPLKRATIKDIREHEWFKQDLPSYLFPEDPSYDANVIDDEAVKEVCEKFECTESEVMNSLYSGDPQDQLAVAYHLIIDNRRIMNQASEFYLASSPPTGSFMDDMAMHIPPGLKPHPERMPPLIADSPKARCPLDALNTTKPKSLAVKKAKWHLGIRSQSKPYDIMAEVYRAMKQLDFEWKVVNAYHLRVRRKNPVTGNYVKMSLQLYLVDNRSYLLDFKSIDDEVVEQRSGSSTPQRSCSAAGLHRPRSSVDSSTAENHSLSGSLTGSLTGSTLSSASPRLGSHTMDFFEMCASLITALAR

[2] = target: 5'-AMP-activated protein kinase catalytic subunit alpha-2 (Rattus norvegicus) (UniProt Q09137); assay: Activation of AMPK in rat IAR-20 cells assessed as phosphorylated protein level at 10 uM after 30 mins by Western blot analysis
[3] = target: 5'-AMP-activated protein kinase catalytic subunit alpha-2 (Rattus norvegicus) (UniProt Q09137); assay: Inhibition of AMPK in rat IAR-20 cells assessed as phosphorylated acetyl CoA carboxylase level at 10 uM after 30 mins by Western blot analysis
[4] = target: 5'-AMP-activated protein kinase catalytic subunit alpha-2 (Rattus norvegicus) (UniProt Q09137); assay: Inhibition of AMPK in rat IAR-20 cells assessed as phosphorylated protein level at 10 uM after 30 mins by Western blot analysis

Structure (SMILES) | Activity [1] | Activity [2] | inhibition [3] | inhibition [4]
Cc1c(O)c(C)c2c(c1O)C(=O)[C@H](Cc1ccc(O)cc1)CO2 | Active | Active |  | 
COc1c(O)c(C)c(O)c2c1OC[C@@H](Cc1ccc(O)cc1)C2=O | Active | Active |  | 
COc1ccc(CC2COc3c(OC)c(O)cc(O)c3C2=O)c(O)c1 (centres undefined) |  |  | Active | Active
COc1cc(O)c(C)c(O)c1C(=O)CCc1ccc(O)cc1 | Active | Active |  | 
COc1c(O)c(C)c(O)c2c1OC[C@@](O)(Cc1ccc(O)cc1)C2=O |  |  | Active | Active
Cc1c(O)cc2c(c1O)C(=O)[C@H](Cc1ccc(O)cc1)CO2 | Active | Active |  | 
Cc1c(O)c(C)c2c(c1O)C(=O)[C@](O)(Cc1ccc(O)cc1)CO2 |  |  | Active | Active
